Where “and” joins values, the source holds several entries; their conditions need not be identical. Identical values can stand only once.

For one assay, the target named is T1, PI3k δ (Homo sapiens, UniProt O00329).
T1 construct: Full length p110 subunits of PI3k α, β and δ; polyHis (N); made in house; host or cells: Sf9 insect cells (baculovirus)
T1 sequence (O00329 whole entry): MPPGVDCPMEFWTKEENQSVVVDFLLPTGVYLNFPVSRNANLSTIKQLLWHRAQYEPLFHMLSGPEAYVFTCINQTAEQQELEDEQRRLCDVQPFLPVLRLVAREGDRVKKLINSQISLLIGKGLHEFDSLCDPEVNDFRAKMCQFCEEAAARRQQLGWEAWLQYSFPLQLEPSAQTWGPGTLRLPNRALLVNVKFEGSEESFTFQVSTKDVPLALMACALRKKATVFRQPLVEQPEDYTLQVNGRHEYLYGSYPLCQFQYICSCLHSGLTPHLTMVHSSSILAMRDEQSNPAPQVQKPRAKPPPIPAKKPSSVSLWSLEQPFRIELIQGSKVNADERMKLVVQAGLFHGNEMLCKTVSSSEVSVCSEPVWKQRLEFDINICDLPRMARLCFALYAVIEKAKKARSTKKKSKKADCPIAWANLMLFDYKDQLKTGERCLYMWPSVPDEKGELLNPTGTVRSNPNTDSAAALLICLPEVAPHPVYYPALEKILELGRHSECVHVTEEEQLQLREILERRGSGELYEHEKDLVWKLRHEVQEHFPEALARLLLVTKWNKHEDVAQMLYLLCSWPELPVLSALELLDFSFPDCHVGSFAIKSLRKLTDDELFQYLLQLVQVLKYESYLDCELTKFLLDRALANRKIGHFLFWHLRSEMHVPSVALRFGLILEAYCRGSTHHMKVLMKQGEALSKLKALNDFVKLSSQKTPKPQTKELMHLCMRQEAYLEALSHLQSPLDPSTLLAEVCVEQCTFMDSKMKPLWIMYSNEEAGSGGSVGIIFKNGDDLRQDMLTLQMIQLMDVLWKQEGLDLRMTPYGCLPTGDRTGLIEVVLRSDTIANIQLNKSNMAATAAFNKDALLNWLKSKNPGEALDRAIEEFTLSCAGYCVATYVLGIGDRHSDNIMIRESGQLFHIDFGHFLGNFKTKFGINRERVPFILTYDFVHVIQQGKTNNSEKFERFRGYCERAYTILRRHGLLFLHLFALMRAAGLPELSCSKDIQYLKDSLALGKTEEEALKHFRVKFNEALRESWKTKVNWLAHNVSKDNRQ
T1 sequence (P27986 whole entry partner): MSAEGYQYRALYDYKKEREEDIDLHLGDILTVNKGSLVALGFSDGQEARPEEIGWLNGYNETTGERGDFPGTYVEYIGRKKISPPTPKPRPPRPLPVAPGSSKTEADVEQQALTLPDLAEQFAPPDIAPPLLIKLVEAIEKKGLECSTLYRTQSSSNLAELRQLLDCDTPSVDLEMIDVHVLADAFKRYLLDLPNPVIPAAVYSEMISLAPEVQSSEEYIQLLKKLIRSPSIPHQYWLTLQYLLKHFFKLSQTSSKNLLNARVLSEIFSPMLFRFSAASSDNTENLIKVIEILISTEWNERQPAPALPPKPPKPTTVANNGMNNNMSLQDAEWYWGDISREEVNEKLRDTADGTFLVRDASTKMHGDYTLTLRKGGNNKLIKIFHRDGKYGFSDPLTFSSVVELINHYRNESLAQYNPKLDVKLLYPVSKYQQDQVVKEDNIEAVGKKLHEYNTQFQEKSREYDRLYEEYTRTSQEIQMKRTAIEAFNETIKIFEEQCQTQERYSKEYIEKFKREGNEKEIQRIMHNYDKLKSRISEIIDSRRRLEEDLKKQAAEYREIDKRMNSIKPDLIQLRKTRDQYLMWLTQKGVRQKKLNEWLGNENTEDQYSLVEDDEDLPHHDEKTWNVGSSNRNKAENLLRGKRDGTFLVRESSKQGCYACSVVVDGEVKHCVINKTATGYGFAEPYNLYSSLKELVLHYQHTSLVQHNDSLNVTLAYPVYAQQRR
Kind of assay: biochemical. The class given is biochemical.
Details: not given
The procedure: Full length p110 subunits of PI3k α, β and δ, N-terminally labeled with polyHis tag, were coexpressed with p85 with Baculo virus expression vectors in sf9 insect cells. P110/p85 heterodimers were purified by sequential Ni-NTA, Q-HP, Superdex-100 chromatography. Purified α, β and δ isozymes were stored at −20° C. in 20 mM Tris, pH 8, 0.2M NaCl, 50% glycerol, 5 mM DTT, 2 mM Na cholate. […] The γ isozyme was purified by sequential Ni-NTA, Superdex-200, Q-HP chromatography. The γ isozyme was stored frozen at −80° C. in NaH2PO4, pH 8, 0.2M NaCl, 1% ethylene glycol, 2 mM β-mercaptoethanol.
Phospatidyl inositol phosphoacceptor, Ptdlns(4,5)P2 P4508, was from Echelon Biosciences. […] Test compounds were dissolved in dimethyl sulfoxide and diluted with three-fold serial dilutions. The compound in DMSO (1 μL) was added per test well, and the inhibition relative to reactions containing no compound, with and without enzyme was determined. After assay incubation at rt, the reaction was stopped and residual ATP determined by addition of an equal volume of a commercial ATP bioluminescence kit (Perkin Elmer EasyLite) according to the manufacturer's instructions, and detected using a AnalystGT luminometer.
As to `C[C@H](Nc1ncnc(N)c1C#N)c1nc2ccc(F)cc2n1-c1cncc(-c2ccccn2)c1` [4-amino-6-(((1S)-1-(1-(2,3′-bipyridin-5′-yl)-6-fluoro-1H-benzimidazol-2-yl)ethyl)amino)-5-pyrimidinecarbonitrile], the Ki was 248 nM.

The assay is the same for the next values; noted with them: read-out: PI3k δ Ki.
For the compound `C[C@@H](Nc1ncnc(N)c1C#N)c1nc2cccc(S(C)(=O)=O)c2n1C1CC1` [4-amino-6-(((1R)-1-(1-cyclopropyl-7-(methylsulfonyl)-1H-benzimidazol-2-yl)ethyl)amino)-5-pyrimidinecarbonitrile], the inhibition constant (Ki) came out at 1000 nM.

As to `C[C@@H](Nc1ncnc(N)c1C#N)c1nc2c(F)cc(F)cc2n1-c1cccnc1` [4-amino-6-(((1R)-1-(4,6-difluoro-1-(3-pyridinyl)-1H-benzimidazol-2-yl)ethyl)amino)-5-pyrimidinecarbonitrile], the Ki amounted to 1290 nM.

As for `C[C@@H](Nc1ncnc(N)c1C#N)c1nc2cc(F)ccc2n1-c1ccccn1` [4-amino-6-(((1R)-1-(5-fluoro-1-(2-pyridinyl)-1H-benzimidazol-2-yl)ethyl)amino)-5-pyrimidinecarbonitrile], the Ki stood at 7 nM.

In the case of `C[C@@H](Nc1ncnc(N)c1C#N)c1nc2cc(F)ccc2n1-c1cncc(F)c1` [4-amino-6-(((1R)-1-(5-fluoro-1-(5-fluoro-3-pyridinyl)-1H-benzimidazol-2-yl)ethyl)amino)-5-pyrimidinecarbonitrile], the Ki was 2820 nM.

Take `C[C@@H](Nc1ncnc(N)c1C#N)c1nc2ccc(F)cc2n1-c1cccc(-c2ccccn2)c1` [4-amino-6-(((1R)-1-(6-fluoro-1-(3-(2-pyridinyl)phenyl)-1H-benzimidazol-2-yl)ethyl)amino)-5-pyrimidinecarbonitrile]: the Ki was determined as 132 nM.

For `C[C@@H](Nc1ncnc(N)c1C#N)c1nc2ccc(F)cc2n1-c1cccc(F)n1` [4-amino-6-(((1R)-1-(6-fluoro-1-(6-fluoro-2-pyridinyl)-1H-benzimidazol-2-yl)ethyl)amino)-5-pyrimidinecarbonitrile], the Ki was 755 nM.

In the case of `C[C@H](Nc1ncnc(N)c1C#N)c1nc2ncccc2n1-c1ccccn1` [4-amino-6-(((1S)-1-(1-(2-pyridinyl)-1H-imidazo[4,5-b]pyridin-2-yl)ethyl)amino)-5-pyrimidinecarbonitrile], the Ki was found to be 1620 nM.

In the case of `C[C@H](Nc1ncnc(N)c1C#N)c1nc2cccc(S(C)(=O)=O)c2n1Cc1cc(F)cc(F)c1` [4-amino-6-(((1S)-1-(1-(3,5-difluorobenzyl)-7-(methylsulfonyl)-1H-benzimidazol-2-yl)ethyl)amino)-5-pyrimidinecarbonitrile], the inhibition constant (Ki) came out at 295 nM.

Take `C[C@H](Nc1ncnc(N)c1C#N)c1nc2c(F)cc(F)cc2n1-c1cc(F)cc(F)c1` [4-amino-6-(((1S)-1-(1-(3,5-difluorophenyl)-4,6-difluoro-1H-benzimidazol-2-yl)ethyl)amino)-5-pyrimidinecarbonitrile]: the Ki came to 2.6 nM.

In the case of `C[C@H](Nc1ncnc(N)c1C#N)c1nc2c(F)cccc2n1-c1cc(F)cc(F)c1` [4-amino-6-(((1S)-1-(1-(3,5-difluorophenyl)-4-fluoro-1H-benzimidazol-2-yl)ethyl)amino)-5-pyrimidinecarbonitrile], the Ki was 6.4 nM and 2.1 nM.

As to `C[C@H](Nc1ncnc(N)c1C#N)c1nc2cccc(F)c2n1-c1cc(F)cc(F)c1` [4-amino-6-(((1S)-1-(1-(3,5-difluorophenyl)-7-fluoro-1H-benzimidazol-2-yl)ethyl)amino)-5-pyrimidinecarbonitrile], the Ki came out at 3.7 nM.

Take `C[C@H](Nc1ncnc(N)c1C#N)c1nc2ccc(F)cc2n1-c1cccc(C#N)c1` [4-amino-6-(((1S)-1-(1-(3-cyanophenyl)-6-fluoro-1H-benzimidazol-2-yl)ethyl)amino)-5-pyrimidinecarbonitrile]: the Ki worked out at 18.8 nM.

As for `C[C@H](Nc1ncnc(N)c1C#N)c1nc2c(S(C)(=O)=O)cccc2n1Cc1ccc(F)cc1` [4-amino-6-(((1S)-1-(1-(4-fluorobenzyl)-4-(methylsulfonyl)-1H-benzimidazol-2-yl)ethyl)amino)-5-pyrimidinecarbonitrile], the inhibitory constant (Ki) stood at 2410 nM.

Turning to `C[C@H](Nc1ncnc(N)c1C#N)c1nc2cccc(S(C)(=O)=O)c2n1Cc1ccc(F)cc1` [4-amino-6-(((1S)-1-(1-(4-fluorobenzyl)-7-(methylsulfonyl)-1H-benzimidazol-2-yl)ethyl)amino)-5-pyrimidinecarbonitrile], the Ki worked out at 26.8 nM.

`CC[C@H](Nc1ncnc(N)c1C#N)c1nc2cccc(S(C)(=O)=O)c2n1Cc1ccc(F)cc1` [4-amino-6-(((1S)-1-(1-(4-fluorobenzyl)-7-(methylsulfonyl)-1H-benzimidazol-2-yl)propyl)amino)-5-pyrimidinecarbonitrile]: the Ki was found to be 27.4 nM.

With `CC[C@H](Nc1ncnc(N)c1C#N)c1nc2cccc(C(F)(F)F)c2n1Cc1ccc(F)cc1` [4-amino-6-(((1S)-1-(1-(4-fluorobenzyl)-7-(trifluoromethyl)-1H-benzimidazol-2-yl)propyl)amino)-5-pyrimidinecarbonitrile], the Ki worked out at 464 nM.

For `C[C@H](Nc1ncnc(N)c1C#N)c1nc2cc(F)ccc2n1CC1CC1` [4-amino-6-(((1S)-1-(1-(cyclopropylmethyl)-5-fluoro-1H-benzimidazol-2-yl)ethyl)amino)-5-pyrimidinecarbonitrile], the Ki was 6 nM and 25.8 nM.

As for `C[C@H](Nc1ncnc(N)c1C#N)c1nc2ccc(F)cc2n1CC1CC1` [4-amino-6-(((1S)-1-(1-(cyclopropylmethyl)-6-fluoro-1H-benzimidazol-2-yl)ethyl)amino)-5-pyrimidinecarbonitrile], the Ki stood at 3.1 nM.

On to `C[C@H](Nc1ncnc(N)c1C#N)c1nc2cccc(S(C)(=O)=O)c2n1CC1CC1` [4-amino-6-(((1S)-1-(1-(cyclopropylmethyl)-7-(methylsulfonyl)-1H-benzimidazol-2-yl)ethyl)amino)-5-pyrimidinecarbonitrile], for which the inhibitory constant (Ki) amounted to 2.2 nM.

Consider `CC[C@H](Nc1ncnc(N)c1C#N)c1nc2cccc(S(C)(=O)=O)c2n1CC1CC1` [4-amino-6-(((1S)-1-(1-(cyclopropylmethyl)-7-(methylsulfonyl)-1H-benzimidazol-2-yl)propyl)amino)-5-pyrimidinecarbonitrile], for which the Ki was found to be 2.19 nM.

On to `CC[C@H](Nc1ncnc(N)c1C#N)c1nc2cccc(C(F)(F)F)c2n1CC1CC1` [4-amino-6-(((1S)-1-(1-(cyclopropylmethyl)-7-(trifluoromethyl)-1H-benzimidazol-2-yl)propyl)amino)-5-pyrimidinecarbonitrile], for which the Ki is 53.1 nM.

Regarding `C[C@H](Nc1ncnc(N)c1C#N)c1nc2c(S(C)(=O)=O)cccc2n1C1CCCC1` [4-amino-6-(((1S)-1-(1-cyclopentyl-4-(methylsulfonyl)-1H-benzimidazol-2-yl)ethyl)amino)-5-pyrimidinecarbonitrile], the Ki stood at 1440 nM.

On to `C[C@H](Nc1ncnc(N)c1C#N)c1nc2cccc(S(C)(=O)=O)c2n1C1CC1` [4-amino-6-(((1S)-1-(1-cyclopropyl-7-(methylsulfonyl)-1H-benzimidazol-2-yl)ethyl)amino)-5-pyrimidinecarbonitrile], for which the Ki turned out to be 2.83 nM.

As for `C[C@H](Nc1ncnc(N)c1C#N)c1nc2cccc(F)c2n1C1CC1` [4-amino-6-(((1S)-1-(1-cyclopropyl-7-fluoro-1H-benzimidazol-2-yl)ethyl)amino)-5-pyrimidinecarbonitrile], the Ki was 12.2 nM.

As for `C[C@H](Nc1ncnc(N)c1C#N)c1nc2cnccn2c1-c1ccccn1` [4-amino-6-(((1S)-1-(3-(2-pyridinyl)imidazo[1,2-a]pyrazin-2-yl)ethyl)amino)-5-pyrimidinecarbonitrile], the Ki is 2160 nM.

Consider `C[C@H](Nc1ncnc(N)c1C#N)c1nc2ncccn2c1-c1ccccn1` [4-amino-6-(((1S)-1-(3-(2-pyridinyl)imidazo[1,2-a]pyrimidin-2-yl)ethyl)amino)-5-pyrimidinecarbonitrile], for which the Ki is 1580 nM.

On to `C[C@H](Nc1ncnc(N)c1C#N)c1nc2cccnn2c1-c1ccccn1` [4-amino-6-(((1S)-1-(3-(2-pyridinyl)imidazo[1,2-b]pyridazin-2-yl)ethyl)amino)-5-pyrimidinecarbonitrile], for which the inhibition constant (Ki) worked out at 2010 nM.

Regarding `C[C@H](Nc1ncnc(N)c1C#N)c1nc2cccnc2n1-c1cc(F)cc(F)c1` [4-amino-6-(((1S)-1-(3-(3,5-difluorophenyl)-3H-imidazo[4,5-b]pyridin-2-yl)ethyl)amino)-5-pyrimidinecarbonitrile], the Ki worked out at 138 nM.

Regarding `C[C@H](Nc1ncnc(N)c1C#N)c1nc2ccc(F)cn2c1-c1cc(F)cc(Cl)c1` [4-amino-6-(((1S)-1-(3-(3-chloro-5-fluorophenyl)-6-fluoroimidazo[1,2-a]pyridin-2-yl)ethyl)amino)-5-pyrimidinecarbonitrile], the Ki came out at 8.8 nM.

For the compound `C[C@H](Nc1ncnc(N)c1C#N)c1nc2ccc(F)cn2c1-c1ccc(Cl)cc1` [4-amino-6-(((1S)-1-(3-(4-chlorophenyl)-6-fluoroimidazo[1,2-a]pyridin-2-yl)ethyl)amino)-5-pyrimidinecarbonitrile], the Ki was 25.1 nM.

`C[C@H](Nc1ncnc(N)c1C#N)c1nc2ccccn2c1-c1ccc(Cl)cc1` [4-amino-6-(((1S)-1-(3-(4-chlorophenyl)imidazo[1,2-a]pyridin-2-yl)ethyl)amino)-5-pyrimidinecarbonitrile]: the Ki came out at 74 nM.

Values taken from patent US8575183B2, “Heterocyclic compounds and their uses” (priority 2010, dated 2013).
